The values that follow come from patent publication US9345691B2, “Beta-lactam compounds for enhancing T cell-mediated immune responses” (STEM CELL MEDICINE LTD., priority 2011, dated 2016).

Series [1] has as its system encephalitogenic BP10 T-cell line. As to the kind of experiment: Adoptive EAE by BP10 line stimulated in vitro with test substance. It counts as in vivo, rat. An excerpt: The ability of a compound to enhance T cell activity may be determined, for example, using an in vivo assay testing the effect of a given compound on the severity of adoptive (passive) EAE, namely, EAE which is induced by the injection of activated encephalitogenic T cell line to the model animal. In order to test a compound, the encephalitogenic T cells are activated in the presence of the compound prior to injection. An exemplary procedure is described in the Examples section hereinbelow.
Antigen-specific T-cell lines were established from lymph node cells that had been stimulated with myelin basic protein (MBP; 10 μg/ml) for 3 days in stimulation medium as described below. Following stimulation, the T-cell blasts were isolated on Lympho-prep (Nycomed Pharma, Oslo, Norway) and seeded in propagation medium. Propagation medium was identical to stimulation medium without autologous serum, but supplemented with fetal calf serum 10% and T-cell growth factors from the supernatant of Con A stimulated spleen cells 10% (Mor et al. (1990) J Clin Invest, 85, 1594-1598). Animals were injected intra-peritoneally with 10^7 MBP-stimulated T cells, following 6-8 cycles of in vitro stimulations. It is known that MBP-reactive lines undergo a reduction in pathogenicity after 6 or more in vitro stimulations. In some experiments the BP10 line was stimulated with phorbol myristate acetate (PMA; 50 ng/ml) and ionomycin (500 ng/ml) for 3 days in stimulation medium, without antigen-presenting cells.
Active EAE was induced by subcutaneous injection of 25 μg guinea-pig MBP (GpMBP) in complete Freund's adjuvant (CFA). CFA was prepared by adding 4 mg/ml Mycobacterium tuberculosis H37Ra (Difco, Mich.) to incomplete Freund's adjuvant (IFA). Adoptive EAE was transferred by intra-peritoneal injection of guinea-pig MBP-activated cells of the BP10 line as described in Mor et al. (1993) J Clin Invest, 92, 2199-2206. […] Clinical scoring was: +1, paralysis of tail; +1.5, paresis of posterior paws and ataxia; +2, paraplegia; +3, paralysis extending to thoracic spine; +4, a moribund state.
Treatment with cefuroxime in vivo could affect many different host agents involved in EAE or AA as well as influencing the rats' bacterial flora. To test whether the antibiotic might directly modify the behavior of effector T cells, an encephalitogenic T-cell line was stimulated in the presence or absence of cefuroxime in vitro. The weakly encephalitogenic BP10 line was used, and was stimulated for 3 days with MBP in the presence or absence of cefuroxime (50 μg/ml). The activated T cells were then washed to remove the antibiotic, the T cells were injected intra-peritoneally into naïve recipient rats (10^7 per rat), and EAE was scored. The BP10 line at later stimulations was used, when its pathogenic potential is reduced, allowing to detect both suppression and enhancement of disease. […] To rule out antigen presenting cells (APC) as the target of the beta-lactam antibiotic, the encephalitogenic BP10 line was stimulated without APC using PMA (50 ng/ml) and Ionomycin (500 ng/ml) in the presence or absence of cefuroxime.

For series [2], the system named is RMA cells (T cell lymphoma of mouse origin). As to the kind of experiment: RMA mouse tumor model. It counts as in vivo. The method, then: In the RMA mouse tumor model (T cell lymphoma of mouse origin), T cells are known to participate in tumor rejection, and thus augmenting T cell effects might enhance the animal's ability to reject the tumor implant. RMA cells were injected to C57BL/6J Ola Hsd mice (10^5 cells per mouse) (Chen et al. (1994) J Exp Med, 179:523-532). […] Tumor size was measured and recorded.
An additional experiment was carried out in the same experimental system, comparing 6-APA to clavulanic acid.

Series [3] is described as follows: Dissolution in aqueous solution. It counts as physicochemical.
Another series concerns NOD mice. Kind of series: Autoimmune diabetes in NOD mice. It is filed as in vivo, mouse. As to conditions: NOD mice at 5.7 months; SC weekly; ampicillin 1300 μg, ceftriaxone 675 μg per mouse. The procedure:
NOD mice spontaneously develop diabetes mellitus similar to type I diabetes in humans. […] The mice were followed for the development of diabetes, marked by blood sugar above 300 mg/dl on 2 measurements.

In series [4] the test system is experimental autoimmune encephalomyelitis (EAE) in rats. As to the kind of experiment: Actively induced EAE. It counts as in vivo, rat. The note with it: oral in drinking water from day 7 postinduction, daily dose 50 mg/kg, versus two control groups.
The target of series [5] is T1, 67 kDa band in human T-cell lysates (Homo sapiens, UniProt P02768).
T1 construct: endogenous in cells; host or cells: primary human CD4 or CD8 T cells from peripheral blood of healthy donors
As to the kind of experiment: Radioactive penicillin binding assay. As to conditions: tritium-labeled, 10 and 20 μCi, 3 days with PMA and Ionomycin; CD4 and CD8 T cell lysates. An excerpt: Tritium labeled benzylpenicillin was obtained from Amersham (Buckinghamshire, UK; 250 μCi, 1 mCi/ml). Human CD4 or CD8 T cells were stimulated in 24 well plates, 5×10^6 cells per ml, with PMA and Ionomycin for 72 hr in the presence of 10 or 20 μCi of labeled penicillin. Following stimulation, the cells were collected, lysed and separated by SDS PAGE. The gels were fixed, treated with 1M sodium salicylate, and dried. The dried gels were exposed to x-ray film (BioMax MS film) for 14 days, with intensifying screen (BioMax TranScreen, Eastman Kodak Co., New Haven Conn., USA), and were developed.
To test whether beta-lactam antibiotics might affect T-cell behavior likewise by covalently binding a key T-cell protein, purified CD4 or CD8 human T cells were incubated with 10 and 20 μCi of tritium-labeled lactam benzylpenicillin (Amersham, Buckinghamshire, UK) for 3 days during stimulation with PMA and Ionomycin. The stimulated T cells were collected, washed, lysed and their proteins were subjected to SDS-PAGE separation. Dried gels were exposed in intensifying screens to Xray film for 2 weeks at −80° C. […] The intensity of the band was stronger at the 20 μCi concentration of penicillin.

The subject of another series is human CD3 T cells. Kind of series: Pen 9 western blot of antibiotic-treated human T cells. As to conditions: human T cells activated by mitogen in presence of the antibiotic. It is filed as cell-based.
The target in series [6] is T2, albumin (Rattus norvegicus, UniProt P02770).
T2 construct: from tissue; host or cells: various tissues and serum of Lewis rats
As to the kind of experiment: Pen 9 detection of penicillin-albumin in vivo. As to conditions: Lewis rats, 50 mg/rat intraperitoneally, 2 hours later. The procedure:
Rat tissues were ground with a tissue grinder in lysis buffer. The homogenate was centrifuged 14000 g for 15 min in 4° C. and the supernatant was used for western blotting. The protein concentration was determined using the Bio-Rad Dc protein assay (Bio-Rad laboratories, Hercules, Calif.). Following electrophoresis in SDS gel in a mini-gel apparatus (Bio-Rad), the gels were electro-transferred to nitrocellulose membranes (Schleicher and schuell, Dassel, Germany). The nitrocellulose membranes were washed with distilled water for 5 min, and then blocked for 60 min. using a blocking solution composed of 2% bovine serum albumin (Fraction V, Sigma, St. Louis Mo.), 2.5% milk powder (Bio-Rad), Tris (Sigma) pH 7.5 10 mM, NaCl 150 mM and 0.02% thimerosal (Sigma). After 3×10 min. washes in PBS/Tween 20 (PBS/T; 0.02%, Sigma), primary antibodies ( 1/1000) were incubated with the membranes in PBS/Tween for 60 min. Following another series of washes in PBS/T (3×10 min), the membranes were incubated with a secondary antibody (Peroxidase conjugated anti rabbit or anti mouse, IgG Jackson ImmunoResearch, West Grove, Calif.) at a 1/2500 dilution in 2% milk in PBS solution for 60 min. After another 3×10 min washes, the membranes were incubated with the ECL reagent (for 60 seconds) and exposed to X-ray film. […]

Series [7] has as its system albumin. As to the kind of experiment: Pen 9 western blot of cell lines treated with penicillin. It counts as cell-based. The note with it: cell lines raised in vitro.
The conditions of series [8]: free penicillin; cited from earlier work.
Setting [9] is: BP10 line, same doses as penicillin.
Setting [10] is: 17 days after tumor injection, versus PBS treated and non-injected mice.

T1 sequence (P02768 25-609): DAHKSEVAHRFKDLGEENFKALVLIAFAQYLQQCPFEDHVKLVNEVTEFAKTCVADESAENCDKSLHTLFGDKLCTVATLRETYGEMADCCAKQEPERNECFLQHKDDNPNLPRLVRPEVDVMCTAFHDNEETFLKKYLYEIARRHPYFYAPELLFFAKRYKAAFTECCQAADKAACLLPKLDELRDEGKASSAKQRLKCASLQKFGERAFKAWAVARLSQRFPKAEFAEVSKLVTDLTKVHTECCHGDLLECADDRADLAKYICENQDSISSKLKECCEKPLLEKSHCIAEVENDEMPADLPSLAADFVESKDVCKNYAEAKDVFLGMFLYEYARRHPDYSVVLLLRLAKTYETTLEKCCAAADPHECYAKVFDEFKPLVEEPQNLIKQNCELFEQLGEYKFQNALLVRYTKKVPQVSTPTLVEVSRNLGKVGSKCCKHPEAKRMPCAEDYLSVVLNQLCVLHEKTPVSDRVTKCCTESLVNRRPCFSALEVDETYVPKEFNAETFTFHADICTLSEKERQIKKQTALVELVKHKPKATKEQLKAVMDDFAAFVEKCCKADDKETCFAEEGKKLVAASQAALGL

Regarding `CC1(C)S[C@@H]2[C@H](N)C(=O)N2[C@H]1C(=O)O` [6-APA, 6-aminopenicillanic acid], the “severity of adoptive EAE” value in [1] (setting [9]) is “EAE enhancing ability, similar to penicillin”. For the same molecule, the tumor size result is given as “smaller tumors” in [2] (setting [10]) and “significantly smaller” in [2] (C57BL/6J mice, SC 2 μg/mouse 3 times per week, last two measurements, versus control mice). For the same molecule, the “solubility in aqueous solution” value in series [3] was “difficult to dissolve in aqueous solution”.

On to `CO/N=C(\C(=O)N[C@@H]1C(=O)N2C(C(=O)O)=C(CSc3nc(=O)c(=O)[nH]n3C)CS[C@H]12)c1csc(N)n1` [ceftriaxone], for which the “severity of adoptive EAE” value in series [1] (BP10 line stimulated 3 days with MBP in presence of 50 μg/ml, 10^7 cells IP per rat) was “enhanced EAE severity”. Besides, the incidence of diabetes in the series on NOD mice worked out at 60%.

In the case of `CO/N=C(\C(=O)N[C@@H]1C(=O)N2C(C(=O)OC(C)OC(C)=O)=C(COC(N)=O)CS[C@H]12)c1ccco1` (stereo partly shown) [cefuroxime axetil], the “severity of actively induced EAE” value in series [4] is “significantly more severe EAE”.

For the molecule `O=C(O)[C@H]1/C(=C/CO)O[C@@H]2CC(=O)N21` [clavulanic acid], the “severity of adoptive EAE (pathogenicity of BP10 line)” value in [1] (BP10 line stimulated with 25 μg/ml, 5 rats per group) is given as “enhanced the pathogenicity of BP10 line”. Besides, in [2] (setting [10]), the tumor size entry is “smaller tumors”.

`CC1(C)S[C@@H]2[C@H](NC(=O)Cc3ccccc3)C(=O)N2[C@H]1C(=O)O` [penicillin, benzylpenicillin]: in series [5], the “covalent binding to T-cell protein (radioactive band on SDS-PAGE)” value is reported as “single major penicillin-protein radioactive band was detected at 67 kD”. The “reactivity of Pen 9 antibody with lysates of treated T cells” value in the series with human CD3 T cells is recorded as “reacted specifically to a major protein of the penicillin-treated T cells”. Besides, at albumin [6], the “67 kD band (penicilloylated albumin) in tissue lysates” value is “appears in all tissues examined and is most abundant in serum”. Also, the “penicillin-modified albumin band in cell line lysates” value in the series on albumin [7] was “could be detected in mesenchymal stem cells, dendritic cells, Jurkat, MOLT4, FAO and CEM lines”. For the same molecule, the half-life in [8] was 42 min.

`C[C@]1(Cn2ccnn2)[C@H](C(=O)O)N2C(=O)C[C@H]2S1(=O)=O` [tazobactam]: the “severity of adoptive EAE” value in [1] (setting [9]) is given as “EAE enhancing ability, similar to penicillin”.

B1: Penicillin-modified rat albumin: rat albumin modified by penicillin (conjugate, UniProt P02770 25-608, looked up)
Albumin: EAHKSEIAHRFKDLGEQHFKGLVLIAFSQYLQKCPYEEHIKLVQEVTDFAKTCVADENAENCDKSIHTLFGDKLCAIPKLRDNYGELADCCAKQEPERNECFLQHKDDNPNLPPFQRPEAEAMCTSFQENPTSFLGHYLHEVARRHPYFYAPELLYYAEKYNEVLTQCCTESDKAACLTPKLDAVKEKALVAAVRQRMKCSSMQRFGERAFKAWAVARMSQRFPNAEFAEITKLATDVTKINKECCHGDLLECADDRAELAKYMCENQATISSKLQACCDKPVLQKSQCLAEIEHDNIPADLPSIAADFVEDKEVCKNYAEAKDVFLGTFLYEYSRRHPDYSVSLLLRLAKKYEATLEKCCAEGDPPACYGTVLAEFQPLVEEPKNLVKTNCELYEKLGEYGFQNAVLVRYTQKAPQVSTPTLVEAARNLGRVGTKCCTLPEAQRLPCVEDYLSAILNRLCVLHEKTPVSEKVTKCCSGSLVERRPCFSALTVDETYVPKEFKAETFTFHSDICTLPDKEKQIKKQTALAELVKHKPKATEDQLKTVMGDFAQFVDKCCKAADKDNCFATEGPNLVARSKEALA
modifications: penicillin-modified
Consider B1, for which the “severity of adoptive EAE (pathogenicity of BP10 line)” value in [1] (BP10 line stimulated 3 days with 5 mg/ml in stimulation medium) is listed as “could also enhance the encephalogenicity of the BP10 line”.
